Columns and labels:
Format in all cases: in vivo
Conditions in all cases: 250 g/h, evaluated after 13 days
[1] = test system: Alopecurus myosuroides (ALOMY); test: Pre-emergence herbicidal glasshouse test, percentage damage
Procedure, shortened: (§1)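 Herbicidal effect was scored 13 days after a 250 g/h spray, using bands of 0-19% (1) through 80-100% (5). Sowing preceded spraying by 1 day for pre-emergence and 8 days for post-emergence. The glasshouse ran at 24/16 °C with 14 h light.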

[2] = test system: Avena fatua (AVEFA); test: as above
Procedure, shortened: as §1

[3] = test system: Echinochloa crus-galli (ECHCG); test: as above
Procedure, shortened: as §1

[4] = test system: Lolium perenne (LOLPE); test: as above
Procedure, shortened: as §1

[5] = test system: Setaria faberi (SETFA); test: as above
Procedure, shortened: as §1

[6] = test system: Setaria faberi (SETFA); test: Post-emergence herbicidal glasshouse test, percentage damage
Procedure, shortened: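 Percentage damage was scored 13 days after treatment on a five-point scale (1=0-19% to 5=80-100%). Treatments were post-emergence sprays on 8-day-old wheat, barley and SETFA plants in a glasshouse (24/16 °C day/night, 14 h light, 65% humidity), using acetone/water 50:50 with 0.5% Tween 20 at the stated rates. Wheat additionally received cloquintocet-mexyl safener at 50 g/ha.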

[7] = test system: Alopecurus myosuroides (ALOMY); test: as above
Procedure, shortened: as §1

[8] = test system: Avena fatua (AVEFA); test: as above
Procedure, shortened: as §1

[9] = test system: Echinochloa crus-galli (ECHCG); test: as above
Procedure, shortened: as §1

[10] = test system: Lolium perenne (LOLPE); test: as above
Procedure, shortened: as §1

Structure (SMILES) | ALOMY PRE percentage damage (five point scale) [1] | AVEFA PRE percentage damage (five point scale) [2] | ECHCG PRE percentage damage (five point scale) [3] | LOLPE PRE percentage damage (five point scale) [4] | SETFA PRE percentage damage (five point scale) [5] | SETFA POST percentage damage (five point scale) [6] | ALOMY POST percentage damage (five point scale) [7] | AVEFA POST percentage damage (five point scale) [8] | ECHCG POST percentage damage (five point scale) [9] | LOLPE POST percentage damage (five point scale) [10]
CC#Cc1cc(C)c(C2C(=O)CC3(CCN(C(=O)c4ccccc4)CC3)CC2=O)c(OC)c1 [Compound A73] | 5 (5=80-100%) | 5 (5=80-100%) | 5 (5=80-100%) | 5 (5=80-100%) | 5 (5=80-100%) | 5 (5=80-100%) | 5 (5=80-100%) | 5 (5=80-100%) | 5 (5=80-100%) | 5 (5=80-100%)
CC#Cc1cc(C)c(C2C(=O)CC3(CCN(C(=O)c4ccccn4)CC3)CC2=O)c(OC)c1 [Compound A74] | 5 (5=80-100%) | 5 (5=80-100%) | 5 (5=80-100%) | 5 (5=80-100%) | 5 (5=80-100%) | 5 (5=80-100%) | 5 (5=80-100%) | 5 (5=80-100%) | 5 (5=80-100%) | 5 (5=80-100%)
CC#Cc1cc(C)c(C2C(=O)CC3(CCN(C(=O)COC)CC3)CC2=O)c(OC)c1 [Compound A75] | 5 (5=80-100%) | 5 (5=80-100%) | 5 (5=80-100%) | 5 (5=80-100%) | 5 (5=80-100%) | 5 (5=80-100%) | 5 (5=80-100%) | 5 (5=80-100%) | 5 (5=80-100%) | 5 (5=80-100%)
CC#Cc1cc(C)c(C2C(=O)CC3(CCN(C(=O)NC(C)(C)C)CC3)CC2=O)c(OC)c1 [Compound A76] | 5 (5=80-100%) | 5 (5=80-100%) | 5 (5=80-100%) | 5 (5=80-100%) | 5 (5=80-100%) | 5 (5=80-100%) | 5 (5=80-100%) | 5 (5=80-100%) | 5 (5=80-100%) | 5 (5=80-100%)
CC#Cc1cc(C)c(C2C(=O)CC3(CCN(C(=O)NC(=O)C(C)(C)C)CC3)CC2=O)c(OC)c1 [Compound A77] | 5 (5=80-100%) | 5 (5=80-100%) | 5 (5=80-100%) | 5 (5=80-100%) | 5 (5=80-100%) | 5 (5=80-100%) | 5 (5=80-100%) | 5 (5=80-100%) | 5 (5=80-100%) | 5 (5=80-100%)
CC#Cc1cc(C)c(C2C(=O)CC3(CCN(C(=O)C4CC4)CC3)CC2=O)c(OC)c1 [Compound A78] | 5 (5=80-100%) | 5 (5=80-100%) | 5 (5=80-100%) | 5 (5=80-100%) | 5 (5=80-100%) | 5 (5=80-100%) | 5 (5=80-100%) | 5 (5=80-100%) | 5 (5=80-100%) | 5 (5=80-100%)
CC#Cc1cc(C)c(C2C(=O)CC3(CCN(C(=O)CC#N)CC3)CC2=O)c(OC)c1 [Compound A80] | 5 (5=80-100%) | 5 (5=80-100%) | 5 (5=80-100%) | 5 (5=80-100%) | 5 (5=80-100%) | 5 (5=80-100%) | 5 (5=80-100%) | 5 (5=80-100%) | 5 (5=80-100%) | 5 (5=80-100%)
CC#Cc1cc(C)c(C2C(=O)CC3(CCN([S+]([O-])C(F)F)CC3)CC2=O)c(C)c1 (centres unmarked) [Compound A81] | 5 (5=80-100%) | 5 (5=80-100%) | 5 (5=80-100%) | 5 (5=80-100%) | 5 (5=80-100%) | 5 (5=80-100%) | 5 (5=80-100%) | 5 (5=80-100%) | 5 (5=80-100%) | 5 (5=80-100%)
CC#Cc1cc(C)c(C2C(=O)CC3(CCN(S(=O)(=O)C4CC4)CC3)CC2=O)c(C)c1 [Compound A82] | 5 (5=80-100%) | 5 (5=80-100%) | 5 (5=80-100%) | 5 (5=80-100%) | 5 (5=80-100%) | 5 (5=80-100%) | 5 (5=80-100%) | 5 (5=80-100%) | 5 (5=80-100%) | 5 (5=80-100%)
CC#Cc1cc(C)c(C2C(=O)CC3(CCN(S(=O)(=O)C4COC4)CC3)CC2=O)c(C)c1 [Compound A83] | 5 (5=80-100%) | 4 (4=60-79%) | 5 (5=80-100%) | 5 (5=80-100%) | 5 (5=80-100%) | 5 (5=80-100%) | 5 (5=80-100%) | 5 (5=80-100%) | 5 (5=80-100%) | 5 (5=80-100%)
CC#Cc1cc(C)c(C2C(=O)CC3(CCN(C(=O)c4ccccc4F)CC3)CC2=O)c(C)c1 [Compound A84] | 5 (5=80-100%) | 4 (4=60-79%) | 5 (5=80-100%) | 5 (5=80-100%) | 5 (5=80-100%) | 5 (5=80-100%) | 5 (5=80-100%) | 5 (5=80-100%) | 5 (5=80-100%) | 5 (5=80-100%)
CC#Cc1cc(C)c(C2C(=O)CC3(CCN([S+]([O-])C(C)(C)C)CC3)CC2=O)c(C)c1 (centres unmarked) [Compound A85] | 5 (5=80-100%) | 3 (3=40-59%) | 5 (5=80-100%) | 5 (5=80-100%) | 5 (5=80-100%) | 4 (4=60-79%) | 5 (5=80-100%) | 5 (5=80-100%) | 5 (5=80-100%) | 5 (5=80-100%)
CC#Cc1cc(C)c(C2C(=O)CC3(CCN(C(=O)N(C)C(C)=O)CC3)CC2=O)c(C)c1 [Compound A86] | 5 (5=80-100%) | 5 (5=80-100%) | 5 (5=80-100%) | 5 (5=80-100%) | 5 (5=80-100%) | 5 (5=80-100%) | 5 (5=80-100%) | 5 (5=80-100%) | 5 (5=80-100%) | 5 (5=80-100%)
CC#Cc1cc(C)c(C2C(=O)CC3(CCN(C(=O)C4=NOCC4)CC3)CC2=O)c(C)c1 [Compound A88] | 5 (5=80-100%) | 5 (5=80-100%) | 5 (5=80-100%) | 5 (5=80-100%) | 5 (5=80-100%) | 5 (5=80-100%) | 5 (5=80-100%) | 5 (5=80-100%) | 5 (5=80-100%) | 5 (5=80-100%)
